Results on 2 compounds are retold here after US10857234B2, “Carbonic anhydrase IX inhibitor conjugates and uses thereof” (Endocyte, Inc., priority 2016, dated 2020).

In general, IC50 refers to the concentration needed to halve the response being measured.

Experiment [1] addresses T1, CA IX (Homo sapiens, UniProt Q16790).
T1 construct: endogenous in cells; host or cells: HT29 cells under hypoxia (1.3% O2)
Put plainly: CA IX competitive binding assay (pH 6.8 vs. 7.4 buffers + Zn2+). Particulars: HT29 cells, 2 nM 125I-EC2674, 2 hr, 37° C. Here is the method: HT29 cells were seeded into 24-well plates at 0.5×10^6 cells per well in McCoy's 5A medium containing 10% fetal bovine serum (FBS) and were allowed to attach for 48 h in an incubator with an atmosphere of 5% CO2/95% air and 37° C. The evening prior to the binding assay, cells were placed in a Hypoxylab workstation set at 10 mm Hg (1.3% O2), 5% CO2, and 37° C. (hypoxic conditions). A single concentration of ^125I-CAIX radioligand was used (2 nM). Serial dilutions of competitors (EC2674 and EC2711) were prepared in McCoy's 5A medium/10% FBS. Binding solutions (500 μL) containing the radioligand and competitor dilutions were placed on the cells, and cells were incubated in the Hypoxylab workstation for 2 h under hypoxic conditions. Cells were then removed from the Hypoxylab and were washed 3 times with ice-cold PBS, pH 7.4. Cells were solubilized with 500 μL of 0.1N NaOH/0.1% Triton X-100. Cell lysates (450 μL) were counted in a Wizard2 gamma counter (Perkin Elmer). […]
Following the procedure for the previous competitive binding assay (Example 22), the CAIX Competitive Binding Assay (pH 6.8 vs. 7.4 Buffers+Zn^2+) was carried out with the following modifications from Example 22. […] Only the homologous cold-iodine labeled CAIX ligand, EC2674, was assessed for competitive binding.

Experiment [2] concerns the target T1, CA IX. In words: CAIX competitive binding assay. Here is the method:
HT29 cells were seeded into 24-well plates at 0.5×10^6 cells per well in McCoy's 5A medium containing 10% fetal bovine serum (FBS) and were allowed to attach for 48 h in an incubator with an atmosphere of 5% CO2/95% air and 37° C. The evening prior to the binding assay, cells were placed in a Hypoxylab workstation set at 10 mm Hg (1.3% O2), 5% CO2, and 37° C. (hypoxic conditions). A single concentration of ^125I-CAIX radioligand was used (2 nM). Serial dilutions of competitors (EC2674 and EC2711) were prepared in McCoy's 5A medium/10% FBS. Binding solutions (500 μL) containing the radioligand and competitor dilutions were placed on the cells, and cells were incubated in the Hypoxylab workstation for 2 h under hypoxic conditions. Cells were then removed from the Hypoxylab and were washed 3 times with ice-cold PBS, pH 7.4. Cells were solubilized with 500 μL of 0.1N NaOH/0.1% Triton X-100. Cell lysates (450 μL) were counted in a Wizard2 gamma counter (Perkin Elmer). CPM values for each competitor concentration were normalized to values for radioligand binding in the absence of competitor.

As for `NS(=O)(=O)c1ccc(NC(=O)CN(CCN(CC(=O)Nc2ccc(S(N)(=O)=O)cc2)CC(=O)N[C@@H](CNC(=O)CCc2cc(I)c(O)c(I)c2)C(=O)O)CC(=O)O)cc1` [EC2674], the IC50 in experiment [1] (1.3% O2, pH 6.8 buffer (20 mM BES, 140 mM NaCl, 1 mM ZnSO4)) came to 62.5 nM; in experiment [1] (1.3% O2, pH 7.4 buffer (20 mM Tris, 140 mM NaCl, 1 mM ZnSO4)) it was 66.5 nM; in experiment [2] (HT29 cells, 2 nM 125I-EC2674, 2 hr, 37° C., 1.3% O2, McCoy's Medium+10% FBS, read-out: IC50) it was 852 nM.

In experiment [2], `CCCC(=O)OCN(C(=O)[C@@H](NC(=O)[C@H]1CCCCN1C)C(C)CC)[C@H](C[C@@H](OC(C)=O)c1nc(C(=O)N[C@@H](Cc2ccc(O)cc2)C[C@H](C)C(=O)NNC(=O)OCCSSC[C@H](NC(=O)[C@H](CC(=O)O)NC(=O)[C@H](CC(=O)O)NC(=O)[C@H](CC(=O)O)NC(=O)CN(CCN(CC(=O)O)CC(=O)Nc2ccc(S(N)(=O)=O)cc2)CC(=O)Nc2ccc(S(N)(=O)=O)cc2)C(=O)O)cs1)C(C)C` (stereo partly shown) [EC2711] returned an IC50 of 9 nM.
